“Also recorded” adds a separate entry of the source.
Columns and labels:
ERβ [1] = molecular target: T1, ERβ (Homo sapiens, UniProt Q92731); conditions: in the presence of ERβ
TNF-RE tkLuc = assay: Activation of the TNF-RE tkLuc reporter (TNF-α, antiestrogens); format: cell-based; conditions: for activation of TNF-RE tkLuc by antiestrogens: in contrast to E2
ERβ [2] = molecular target: T1, ERβ; assay: Concentration binding curve for Nyasol, ERβ (FIG. 6)
ERα = molecular target: T2, ERα (Homo sapiens, UniProt P03372); assay: Concentration binding curve for Nyasol, ERα (FIG. 6)
T2 sequence (P03372 1-595): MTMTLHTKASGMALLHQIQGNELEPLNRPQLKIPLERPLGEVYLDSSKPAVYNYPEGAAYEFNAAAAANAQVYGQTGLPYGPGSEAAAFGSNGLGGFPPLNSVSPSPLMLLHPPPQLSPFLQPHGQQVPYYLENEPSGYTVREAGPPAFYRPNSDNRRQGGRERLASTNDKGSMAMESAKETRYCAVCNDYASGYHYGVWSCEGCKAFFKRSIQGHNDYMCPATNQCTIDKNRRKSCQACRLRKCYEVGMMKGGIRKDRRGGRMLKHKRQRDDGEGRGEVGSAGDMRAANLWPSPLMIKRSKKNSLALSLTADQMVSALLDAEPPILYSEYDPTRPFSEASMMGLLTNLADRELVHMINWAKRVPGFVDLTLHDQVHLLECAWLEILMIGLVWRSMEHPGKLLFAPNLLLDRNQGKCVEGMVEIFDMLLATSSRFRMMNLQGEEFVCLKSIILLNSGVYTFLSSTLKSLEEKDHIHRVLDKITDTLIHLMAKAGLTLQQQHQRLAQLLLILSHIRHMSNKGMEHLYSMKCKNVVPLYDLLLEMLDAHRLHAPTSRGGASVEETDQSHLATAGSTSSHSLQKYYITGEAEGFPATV

[3] = tested on: MCF-7 breast cancer cells; assay: MCF-7 kidney capsule xenografts in nude mice; design: dose or concentration left out as unconfirmed; conditions: 28 days
Experimental: MCF-7 xenografts were introduced into nude mouse kidneys. Mice were randomized to three treatment groups. […] Each treatment group was treated for 28 days, after which mice were euthanized and the kidneys containing the xenografts were excised, photographed and weighed.

TNFα-RE = assay: Repression of TNFα-RE linked expression of Luc by nyasol (FIG. 4); conditions: in vitro
[4] = molecular target: T3, estrogen receptor beta (ERβ) (Homo sapiens, UniProt Q92731); assay: ERE-tkLuc luciferase expression with nyasol in cells coexpressing ERβ (FIG. 3, FIG. 5); format: cell-based
T3 construct: expressed in transfected cells
From the text: FIG. 3 is a graph comparing luciferase expression in cells transformed with DNA encoding estrogen response element alpha linked to the minimal thymidine kinase (tk) promoter and a sequence encoding luciferase (Luc) in response to varying concentrations of nyasol in the presence of either estrogen receptor alpha (ERα) or estrogen receptor beta (ERβ).

breast cancer = conditions: among the 5129 women in the raloxifene treatment group; median follow-up 40 months; cited from earlier work
[5] = tested on: estrogen receptor-positive breast cancer; conditions: cited from earlier work
[6] = tested on: primary invasive breast cancer; conditions: women at high risk for breast cancer; cited from earlier work
[7] = five years of tamoxifen therapy

T3 sequence (Q92731 whole entry): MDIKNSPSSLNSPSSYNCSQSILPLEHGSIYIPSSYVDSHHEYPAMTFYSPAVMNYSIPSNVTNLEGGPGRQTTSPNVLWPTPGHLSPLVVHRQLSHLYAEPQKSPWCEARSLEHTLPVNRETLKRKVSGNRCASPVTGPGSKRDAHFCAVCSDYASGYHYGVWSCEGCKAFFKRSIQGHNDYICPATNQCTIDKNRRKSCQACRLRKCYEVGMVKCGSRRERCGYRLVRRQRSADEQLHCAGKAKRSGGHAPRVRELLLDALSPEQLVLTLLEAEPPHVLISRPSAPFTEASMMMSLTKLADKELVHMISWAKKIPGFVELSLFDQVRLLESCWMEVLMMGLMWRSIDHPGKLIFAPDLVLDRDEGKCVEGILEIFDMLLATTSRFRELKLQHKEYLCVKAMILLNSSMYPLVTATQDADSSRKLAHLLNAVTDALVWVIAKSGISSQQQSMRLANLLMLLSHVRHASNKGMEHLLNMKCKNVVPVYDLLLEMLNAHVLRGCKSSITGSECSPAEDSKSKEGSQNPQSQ
T1 sequence (Q92731 whole entry): as above

## C[C@]12CC[C@@H]3c4ccc(O)cc4CC[C@H]3[C@@H]1CC[C@@H]2O [E2, estradiol]
ERβ [1]
  repression of TNF-α activation of TNF-RE tkLuc: 60-80%

## C[C@]12CC[C@@H]3c4ccc(O)cc4C[C@@H](CCCCCCCCC[S+]([O-])CCCC(F)(F)C(F)(F)F)[C@H]3[C@@H]1CC[C@@H]2O (some centres unmarked) [ICI 182780]
TNF-RE tkLuc
  activation of TNF-RE tkLuc by antiestrogens: 2 fold

## C=CC(/C=C\c1ccc(O)cc1)c1ccc(O)cc1 (centres unmarked) [Nyasol, nyasol]
ERβ [2]
  binding of ERβ with nyasol: bind
ERα
  binding of ERα with nyasol: bind
[3]
  growth of MCF-7 kidney capsule xenografts compared to control: inhibits the growth
TNFα-RE
  repression of TNFα-RE linked expression of Luc: selectively represses
[4]; FIG. 3, varying concentrations of nyasol, ERE-tkLuc
  ERβ-selective activation of the ERE (luciferase expression, ERβ versus ERα): selectively activates the ERE; also recorded: selective estrogen receptor beta agonist
[4]; FIG. 5, nyasol, control EtOH
  expression of luciferase in ERE-tkLuc-transformed cells coexpressing ERβ: activated the ERE

## O=C(c1ccc(OCCN2CCCCC2)cc1)c1c(-c2ccc(O)cc2)sc2cc(O)ccc12 [raloxifene]
TNF-RE tkLuc
  activation of TNF-RE tkLuc by antiestrogens: 2 fold
Breast cancer
  cases of breast cancer: 13 cases
[4]; FIG. 5, added together with Nyasol, ERβ
  effect of addition to nyasol on activation of the ERE: reduced this activation

## CC/C(=C(\c1ccccc1)c1ccc(OCCN(C)C)cc1)c1ccccc1 [tamoxifen]
TNF-RE tkLuc
  activation of TNF-RE tkLuc by antiestrogens: 2 fold
[5]; [7]
  reduction of mortality from breast cancer: 22%
  reduction of the risk of recurrences: 42%
[5]; fraction of tumors
  ER positive breast tumors that respond: ⅔
[6]
  reduction of the risk of primary invasive breast cancer: 49%

## TNF-α
TNF-RE tkLuc; TNF-α as stimulus
  activation of 3 copies of the TNF-RE (−125 to −82) upstream of the tk promoter: 5-10 fold
